Measurements as given in PubChem BioAssay AID2060909 (Molecular Pharmacology Branch, DTP, NCI, 2025).

System: 362531-283-R-J2-PDC complex spheroid viability
Experiment: Anticancer human tumor 362531-283-R-J2-PDC patient-derived colon adenocarcinoma cell line growth inhibition [RAS]
Conditions: for viability, T/C: stronger effect = lower value
In short: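 Agents were tested in combination matrices in half-log decrements from a top concentration at or near clinical Cmax (10 microM if undetermined). Targets were multi-cell spheroids of tumour lines plus HUVEC and MSC stromal cells.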
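Also: spheroids exposed to the agents for 7 days before readout.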
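For viability, T/C in this document: luminescence viability as percent of DMSO vehicle control wells.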

In the case of CC1(O)CCCC1n1c(=O)c(C(F)F)cc2cnc(NC3CCN(S(C)(=O)=O)CC3)nc21 (centres undefined) + C=CC(=O)N1CCN(c2nc(OCC3CCCN3C)nc3c(F)c(-c4nc(N)cc(C)c4C(F)(F)F)c(Cl)cc23)C(C)C1, the IC50 (curve of first compound, second compound 0.00316 µM) is reported as > 10 µM, the IC50 (curve of first compound, second compound 0.01 µM) is reported as > 10 µM and the IC50 (curve of first compound, second compound 0.0316 µM) is reported as > 10 µM. The IC50 (curve of first compound, second compound 0.1 µM) was > 10 µM, the IC50 (curve of first compound, second compound 0.316 µM) was > 10 µM and the IC50 (curve of first compound, second compound 1 µM) was > 10 µM. For the same molecule, the viability, T/C (second compound 0.00316 µM, first compound 0.0316 µM) was 97.6%, the viability, T/C (second compound 0.00316 µM, first compound 0.1 µM) was 98% and the viability, T/C (second compound 0.00316 µM, first compound 0.316 µM) was 77.6%. It also gave a viability, T/C (second compound 0.00316 µM, first compound 1 µM) of 68.3%, a viability, T/C (second compound 0.00316 µM, first compound 3.16 µM) of 64.8% and a viability, T/C (second compound 0.00316 µM, first compound 10 µM) of 101%. It also gave a viability, T/C (second compound 0.01 µM, first compound 0.0316 µM) of 101%, a viability, T/C (second compound 0.01 µM, first compound 0.1 µM) of 97.1% and a viability, T/C (second compound 0.01 µM, first compound 0.316 µM) of 83.1%. It also gave a viability, T/C (second compound 0.01 µM, first compound 1 µM) of 75.5%, a viability, T/C (second compound 0.01 µM, first compound 3.16 µM) of 68.6% and a viability, T/C (second compound 0.01 µM, first compound 10 µM) of 65.7%. It also gave a viability, T/C (second compound 0.0316 µM, first compound 0.0316 µM) of 102%, a viability, T/C (second compound 0.0316 µM, first compound 0.1 µM) of 93.2% and a viability, T/C (second compound 0.0316 µM, first compound 0.316 µM) of 82.8%. It also gave a viability, T/C (second compound 0.0316 µM, first compound 1 µM) of 76.1%, a viability, T/C (second compound 0.0316 µM, first compound 3.16 µM) of 60% and a viability, T/C (second compound 0.0316 µM, first compound 10 µM) of 95.2%. The viability, T/C (second compound 0.1 µM, first compound 0.0316 µM) was 91.5%, the viability, T/C (second compound 0.1 µM, first compound 0.1 µM) was 95% and the viability, T/C (second compound 0.1 µM, first compound 0.316 µM) was 93.5%. It also gave a viability, T/C (second compound 0.1 µM, first compound 1 µM) of 75.2%, a viability, T/C (second compound 0.1 µM, first compound 3.16 µM) of 54.1% and a viability, T/C (second compound 0.1 µM, first compound 10 µM) of 89.7%. For the same molecule, the viability, T/C (second compound 0.316 µM, first compound 0.0316 µM) was 97.2%, the viability, T/C (second compound 0.316 µM, first compound 0.1 µM) was 92.5% and the viability, T/C (second compound 0.316 µM, first compound 0.316 µM) was 89.2%. For the same molecule, the viability, T/C (second compound 0.316 µM, first compound 1 µM) was 70.2%, the viability, T/C (second compound 0.316 µM, first compound 3.16 µM) was 64.4% and the viability, T/C (second compound 0.316 µM, first compound 10 µM) was 69.1%. The viability, T/C (second compound 1 µM, first compound 0.0316 µM) was 98.6%, the viability, T/C (second compound 1 µM, first compound 0.1 µM) was 104% and the viability, T/C (second compound 1 µM, first compound 0.316 µM) was 89.9%. It also gave a viability, T/C (second compound 1 µM, first compound 1 µM) of 77.4%, a viability, T/C (second compound 1 µM, first compound 3.16 µM) of 70.8% and a viability, T/C (second compound 1 µM, first compound 10 µM) of 53%.
With CC1(C)CCC(Nc2ncc(C(F)(F)F)c(-c3c[nH]c4c(P(C)(C)=O)c(C#N)ccc34)n2)CN1 (centres undefined) the viability, T/C (compound 0.000949 µM) was 104% [middle of 4 runs], the viability, T/C (compound 0.003 µM) was 98.7% [middle of 4 runs] and the viability, T/C (compound 0.00949 µM) was 107% [middle of 4 runs]. For the same molecule, the viability, T/C (compound 0.03 µM) was 101% [middle of 4 runs], the viability, T/C (compound 0.0949 µM) was 104% [middle of 4 runs] and the viability, T/C (compound 0.3 µM) was 108% [middle of 4 runs]. The IC50 (curve of compound) was > 0.3 µM.
